Results from patent US20180177753A1, “GLYCERYL 3-HYDROXYBUTYRATES FOR MIGRAINE SYMPTOM MANAGEMENT” (NeuroEnergy Ventures, Inc., priority 2016, published 2018).

Legend:
Type in all cases: in vivo
[1] = Preventive administration before an expected migraine in a subject with chronic repetitive migraine; conditions: 70 kg male of Example 2, 20 g 3 times a day, days 90 to 130, started about 5-6 days before expected onset
Source text: The subject of Example 2 discontinues the administration after 35 days, is migraine free for two months and a further episode occurs and Example 2 is followed again, counting the start of this second migraine as day 1, except that after ceasing the administration on day 35, the subject begins administration again on day 90 (about 5-6 days before an expected onset of a further migraine based on this subject's history) and continues administration for an additional 40 days (that is for days 90 to 130).

[2] = Self-administration at onset of prodromal visual disturbances in a subject with episodic migraines; conditions: 60 kg female, 15 g orally within minutes of visual disturbances, 3 times a day for 4 days
Source text: A 60 kg person presents with episodic migraines occurring one such headache occurring and then not again for a number of months. At each event, shortly before the headache begins, the subject has visual disturbances classic of migraine. The subject is requested to self-administer 15 grams of glyceryl tris(3-hydroxybutyrate) upon noticing the next time visual disturbance of this type appear and continue to do so 3 times a day for 4 days. The subject notices such symptoms, and ingests 15 g of glyceryl tris(3-hydroxybutyrate) within minutes of noticing the symptoms.

[3] = Self-administration at migraine onset in subjects with chronic repetitive migraine; conditions: 70 kg male, 20 g at migraine onset, 3 times a day for 35 days
Source text: There is no known or suspect event triggering these events. The subject is instructed to self-administer 20 g of glyceryl tris(3-hydroxybutyrate) upon the onset of the migraine and to continue to self-administer at this dosage 3 times a day for 35 days.
A 60 kg person presents with chronic repetitive migraine with a similar repetitive pattern to the subject of Examples 2 and 3. They are instructed to self-administer 15 g of glyceryl tris(3-hydroxybutyrate) upon the onset of the migraine, rather than the 20 g as in Examples 2 and 3, but otherwise to follow the regimen in Examples 2 and 3.

CC(O)CC(=O)OCC(COC(=O)CC(C)O)OC(=O)CC(C)O (stereo not shown) [glyceryl tris(3-hydroxybutyrate)]
occurrence of the expected migraine (days 94-95) during the administration period [1]: no such migraine appears
duration of the headache that follows, versus past episodes [2]: lesser duration
intensity of the headache that follows, versus past episodes [2]: lesser intensity
duration of the usual initial migraine, versus past history [3]: shorter duration
frequency of the repetitive migraines, versus past history [3]: further reduced in frequency
intensity of the repetitive migraines, versus past history [3]: further reduced in frequency and intensity
severity of the usual initial migraine, versus past history [3]: less severe
